# In the supplement of paper PMC10307832:
# How the values were obtained:
# Assay in all cases: relative viability (nuclei count vs DMSO), 5 days (fraction); higher = more cells survive
# FH535 + Palbociclib = compound: CC1=C(C=CC(=C1)[N+](=O)[O-])NS(=O)(=O)C2=C(C=CC(=C2)Cl)Cl [FH535] + CC(=O)c1c(C)c2cnc(Nc3ccc(N4CCNCC4)cn3)nc2n(C2CCCC2)c1=O [Palbociclib] (partner 0.5 µM)
# Summary of the method: (§1)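 Relative viability was taken as the ratio of nuclei in treated wells to nuclei in vehicle wells. Lung cancer cell lines in 1536-well plates received compounds by pin tool one day after seeding, either one drug alone or a fixed anchor-drug dose plus five library-drug doses (not always all listed) in √10 steps. Nuclei were counted on 4× images after 5 days of treatment, and values are medians of duplicate plates.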
# FH535 + Bortezomib = compound: CC1=C(C=CC(=C1)[N+](=O)[O-])NS(=O)(=O)C2=C(C=CC(=C2)Cl)Cl [FH535] + CC(C)C[C@H](NC(=O)[C@H](Cc1ccccc1)NC(=O)c1cnccn1)B(O)O [Bortezomib] (partner 0.002 µM)
# Summary of the method: as §1
# FH535 + Lapatinib = compound: CC1=C(C=CC(=C1)[N+](=O)[O-])NS(=O)(=O)C2=C(C=CC(=C2)Cl)Cl [FH535] + CS(=O)(=O)CCNCc1ccc(-c2ccc3ncnc(Nc4ccc(OCc5cccc(F)c5)c(Cl)c4)c3c2)o1 [Lapatinib] (partner 2 µM)
# Summary of the method: as §1
# FH535 + Pictilisib = compound: CC1=C(C=CC(=C1)[N+](=O)[O-])NS(=O)(=O)C2=C(C=CC(=C2)Cl)Cl [FH535] + CS(=O)(=O)N1CCN(Cc2cc3nc(-c4cccc5[nH]ncc45)nc(N4CCOCC4)c3s2)CC1 [Pictilisib] (partner 1 µM)
# Summary of the method: as §1
# FH535 + Pemetrexed = compound: CC1=C(C=CC(=C1)[N+](=O)[O-])NS(=O)(=O)C2=C(C=CC(=C2)Cl)Cl [FH535] + Nc1nc2[nH]cc(CCc3ccc(C(=O)N[C@@H](CCC(=O)O)C(=O)O)cc3)c2c(=O)[nH]1 [Pemetrexed] (partner 0.2 µM)
# Summary of the method: as §1
Cell Line,relative viability (FH535 + Palbociclib; first compound 0.04 µM),relative viability (FH535 + Palbociclib; first compound 0.1265 µM),relative viability (FH535 + Palbociclib; first compound 0.4 µM),relative viability (FH535 + Palbociclib; first compound 1.265 µM),relative viability (FH535 + Bortezomib; first compound 0.04 µM),relative viability (FH535 + Bortezomib; first compound 0.1265 µM),relative viability (FH535 + Bortezomib; first compound 0.4 µM),relative viability (FH535 + Bortezomib; first compound 1.265 µM),relative viability (FH535 + Lapatinib; first compound 0.04 µM),relative viability (FH535 + Lapatinib; first compound 0.1265 µM),relative viability (FH535 + Lapatinib; first compound 0.4 µM),relative viability (FH535 + Lapatinib; first compound 1.265 µM),relative viability (FH535 + Pictilisib; first compound 0.04 µM),relative viability (FH535 + Pictilisib; first compound 0.1265 µM),relative viability (FH535 + Pictilisib; first compound 0.4 µM),relative viability (FH535 + Pictilisib; first compound 1.265 µM),relative viability (FH535 + Pemetrexed; first compound 0.04 µM),relative viability (FH535 + Pemetrexed; first compound 0.1265 µM),relative viability (FH535 + Pemetrexed; first compound 0.4 µM),relative viability (FH535 + Pemetrexed; first compound 1.265 µM)
HCC-78,0.487,0.512,0.458,0.425,0.475,0.471,0.593,0.434,0.694,0.321,0.701,0.697,0.193,0.223,0.187,0.204,0.837,0.868,0.904,0.871
HCC-366,0.418,0.412,0.37,0.296,1.1,1.12,0.987,0.925,1,1.11,0.999,0.913,0.132,0.137,0.116,0.125,0.169,0.134,0.174,0.159
HCC-827,0.501,0.479,0.489,0.332,1.01,0.953,1.04,0.849,0.202,0.195,0.213,0.163,0.894,1,0.824,0.728,0.237,0.246,0.216,0.263
HOP-62,0.481,0.462,0.456,0.393,0.579,0.949,0.768,0.682,0.886,0.87,1,1.01,0.505,0.606,0.64,0.676,0.322,0.267,0.345,0.35
LC-2-ad,0.481,0.482,0.476,0.441,0.802,0.987,0.892,0.722,0.711,0.97,0.92,0.697,0.462,0.466,0.162,0.33,0.271,0.296,0.249,0.31
LCLC-97TM1,0.199,0.203,0.235,0.135,0.705,0.545,0.561,0.273,–,0.766,0.837,0.833,–,0.124,0.176,0.206,0.155,0.173,0.156,0.135
LCLC-103H,0.509,0.426,0.493,0.416,0.948,1.01,0.939,1.01,–,–,–,–,0.598,0.608,0.561,0.535,0.456,0.48,0.467,0.52
LK-2,0.624,0.578,0.553,0.593,–,–,–,–,0.982,0.854,0.91,0.775,0.546,0.573,0.58,0.489,0.271,0.288,0.278,0.307
NCI-H358,0.121,0.129,0.129,0.134,–,–,–,–,0.406,0.422,0.441,0.388,0.326,0.338,0.247,0.271,0.178,0.16,0.169,0.16
NCI-H441,0.212,0.197,0.176,0.174,0.356,0.351,0.376,0.293,–,–,–,–,0.434,0.469,0.443,0.423,0.232,0.254,0.231,0.257
NCI-H522,0.984,0.936,0.945,0.701,–,–,–,–,–,–,–,–,–,–,–,–,0.847,1.01,0.994,1.08
NCI-H596,–,–,–,–,0.915,1.09,1.19,0.952,1.06,1.03,0.985,0.94,0.347,0.385,0.39,0.344,0.499,0.507,0.454,0.507
NCI-H727,0.663,0.634,0.693,0.63,0.687,0.59,0.75,0.721,0.85,0.628,0.727,0.665,0.482,0.315,0.401,0.366,–,–,–,–
NCI-H1395,0.599,0.735,0.63,0.561,–,–,–,–,0.768,0.968,0.964,0.555,0.583,0.645,0.64,0.541,0.768,0.854,0.829,0.773
NCI-H1703,–,–,–,–,0.413,0.288,0.425,0.317,1.12,1.12,1.11,0.662,0.195,0.213,0.257,0.219,–,–,–,–
NCI-H1793,0.315,0.306,0.348,0.241,–,–,–,–,0.525,0.575,0.641,0.696,0.344,0.401,0.313,0.301,0.655,0.932,0.66,0.584
NCI-H1944,0.328,0.326,0.35,0.272,–,–,–,–,–,0.777,0.668,0.754,–,0.37,0.34,0.344,0.53,0.621,0.505,0.515
NCI-H2170,0.397,0.423,0.372,0.312,–,–,–,–,0.26,0.332,0.265,0.254,0.255,0.418,0.315,0.285,0.262,0.253,0.252,0.259
NCI-H2342,0.524,0.533,0.567,0.581,–,–,–,–,–,–,–,–,–,–,–,–,0.772,0.748,0.812,0.634
SK-MES-1,0.305,0.301,0.312,0.263,–,–,–,–,0.493,0.448,0.422,0.412,0.329,0.384,0.365,0.411,0.934,0.906,0.913,0.849
